Assay results from patent US10227348B2, “Use of 10H-benzo[g]pteridine-2,4-dione derivatives” (TriOptoTec GmbH, priority 2011, dated 2019).

How the values were obtained:
[1] = test system: Escherichia coli (ATCC number: 25922); assay: Phototoxicity test (photodynamic inactivation, CFU/ml by Miles and Misra); format: cell-based; conditions: E. coli; irradiation at 10.5 J/cm^2 (50 mW/cm^2, 210 sec, 390-500 nm); incubation 10 min or 30 min; CFU/ml after 24 h
Description: (§1) A sample of the bacterial strain Staphylococcus aureus (ATCC number: 25923) or Escherichia coli (ATCC number: 25922) was taken from a cryogenically frozen culture, isolated on Müller-Hinton agar plates and cultivated under aerobic conditions at 37° C. in an overnight culture. Thereafter, 5 ml of Müller-Hinton liquid medium were inoculated with a smear of the bacterial culture (single colony) and incubated at 37° C. overnight. The bacterial suspension thus obtained was centrifuged at 2500 rpm for 10 min and the bacterial pellet obtained was resuspended in 5 ml of sterile PBS. The optical density of the bacterial suspensions for the phototoxicity tests was OD600nm=0.6, which corresponds to a bacteria count of ˜[…] bacteria per ml. The biochemical analysis and resistance determination of the bacteria were conducted with the VITEK2 system according to the M100-S14 guidelines from the NCCLS (2004).
(§2) 200 μl of a bacterial suspension (bacterial density: 10^8-10^12/ml) were incubated with 200 μl of each of various concentrations of the photosensitizers to be tested at room temperature for 10 min or 30 min. Thereafter, the bacteria were washed twice with distilled water and resuspended in 200 μl of distilled water, and the entire volume was transferred to a 96-well microtiter plate and then irradiated. The photosensitizers used were dissolved in distilled water and various dilution series were prepared (0 μM, 1 μM, 10 μM, 100 μM).
(§3) For sensitization, the Omnicure Series 2000 lamp (Photonics Solutions Inc., Edinburgh, UK) was used, which emits light from a range from 390 nm to 500 nm and has emission maxima Emax at 405 nm and 436 nm. The power applied in each case was 50 mW/cm^2.
(§4) Irradiated and unirradiated samples were used as controls. Likewise run were bacterial suspensions incubated only with photosensitizer (dark control).
(§5) The determination of the colony-forming units (CFU) per ml was conducted by the method published by Miles and Misra (Miles, A A; Misra, S S, Irwin, J O (1938 November). “The estimation of the bactericidal power of the blood.”. The Journal of hygiene 38 (6): 732-49). For this purpose, serial dilutions from 10^−2 to 10^−9 of the corresponding bacterial suspension were prepared. 3×20 μl of each of the corresponding bacterial dilutions were then dripped onto Müller-Hinton plates and incubated at 37° C. for 24 h. Thereafter, the number of surviving colony-forming units (CFU) was determined. Each of the experiments was repeated three times.
(§6) The effectiveness of phototoxicity with respect to bacteria after irradiation was defined according to the following guidelines for hand hygiene in the health sector (Boyce, J. M., and D. Pittet. 2002. Guideline for Hand Hygiene in Health-Care Settings: recommendations of the Healthcare Infection Control Practices Advisory Committee and the HICPAC/SHEA/APIC/IDSA Hand Hygiene Task Force. Infect Control Hosp Epidemiol 23: p. 3-40): • reduction in the CFU/ml by 1 log10 stage≙90% effectiveness • reduction in the CFU/ml by 3 log10 stages≙99.9% effectiveness • reduction in the CFU/ml by 5 log10 stages≙99.999% effectiveness
(§7) For effective inactivation, the decrease of ≥3 log10 stages can therefore be adopted, and S. aureus and E. coli were chosen as examples of representatives from the group of the Gram-positive and Gram-negative bacteria (see Boyce J. M and D. Pittet 2009).

[2] = test system: Staphylococcus aureus (ATCC number: 25923); assay: as above; format: cell-based; conditions: S. aureus; irradiation at 10.5 J/cm^2 (50 mW/cm^2, 210 sec, 390-500 nm); incubation 10 min or 30 min; CFU/ml after 24 h
Description: as §1, §2, §3, §4, §5, §6, §7

Row | SMILES | Required concentration to achieve a reduction by ≥3 log10 stages (decrease by 99.9%) [1] | Required concentration to achieve a reduction by ≥3 log10 stages (decrease by 99.9%) [2] [μM]
1 | Cc1cc2nc3c(=O)[nH]c(=O)nc-3n(CCN)c2cc1C [FL-01] | 10 μM | 10
2 | COCCn1c2nc(=O)n(CCN)c(=O)c-2nc2cc(C)c(C)cc21 [FL-03] | >100^(*^) μM | 10
3 | COCCn1c2nc(=O)n(CCNC(=N)N)c(=O)c-2nc2cc(C)c(C)cc21 [FL-04] | >100^(*^) μM | 50
4 | Cc1cc2nc3c(=O)[nH]c(=O)nc-3n(CCOCCOCCN)c2cc1C [FL-05] | >100^(*^) μM | 100
